Tests used:
[1] = test system: Undifferentiated HL-60 cells; experiment: Energy use by undifferentiated HL-60 cells; type: cell-based, human
HL-60 cells = experiment: HL-60 responses to selected compounds at a range of concentrations; type: cell-based, human
Protocol: In this Example, methods for testing unattached cells for their ability to use various concentrations of selected carbon sources are described. The carbon sources used in this Example were identified by the methods disclosed in Example 27. Similarly, HL-60 cells were cultured as described in Example 27.
After washing, HL-60 cells were resuspended in DME-R. An aliquot of the cell suspension was counted by trypan blue exclusion and the cell density was adjusted to 6.67×10^5/mL. Fifty μL of DME-R were added to each well of the appropriate number of half area, 96-well plates, followed by 23 μL of the appropriate dilution of each test energy source. Stocks of 133 mM of each test chemical were prepared in tissue culture grade water, sterile filtered, and dilutions were prepared in a master plate so that, upon dilution in a total volume of 150 μL, the final concentrations would be 0.033 to 20 mM. Negative control wells received 23 μL of tissue culture grade water. The cells were plated at a volume of 75 μL/well, giving a final cell density of 5×10^4/well. For each plate containing energy sources and cells, a second, control plate containing only energy sources was prepared. Plates were incubated at 5% CO2, 90-100% humidity, and 37° C. for 24 hours prior to addition of the MTS/MPMS colorometric reagent (7.5 μL/well). The color formed in each well after an additional 24 hour incubation period, was measured on a plate reader at 490 nm with a reference wavelength of 650 nm. OD values from the control plate were subtracted from the OD values obtained with cells prior to normalizing the data to % negative control (cells without added energy source).

Structure (SMILES): O=C1O[C@@H]([C@H](O)CO)[C@H](O)[C@H]1O [D-gal acid g-lactone]
- Energy Use by Undifferentiated HL-60 Cells ([1]; Conc. 0.03 mM): 122.7 % of negative control
- Energy Use by Undifferentiated HL-60 Cells ([1]; Conc. 0.10 mM): 127.4 % of negative control
- Energy Use by Undifferentiated HL-60 Cells ([1]; Conc. 0.33 mM): 125.3 % of negative control
- Energy Use by Undifferentiated HL-60 Cells ([1]; Conc. 1.00 mM): 133.2 % of negative control
- Energy Use by Undifferentiated HL-60 Cells ([1]; Conc. 3.3 mM): 152.6 % of negative control
- Energy Use by Undifferentiated HL-60 Cells ([1]; Conc. 10 mM): 136.7 % of negative control
- Energy Use by Undifferentiated HL-60 Cells ([1]; Conc. 15 mM): 147.5 % of negative control
- Energy Use by Undifferentiated HL-60 Cells ([1]; Conc. 20 mM): 125.0 % of negative control
- HL-60 Cell Responses to Selected Compounds from PM1 and PM2 (HL-60 cells; Conc. 0.03 mM): 128.3 % of negative control
- HL-60 Cell Responses to Selected Compounds from PM1 and PM2 (HL-60 cells; Conc. 0.10 mM): 128.7 % of negative control
- HL-60 Cell Responses to Selected Compounds from PM1 and PM2 (HL-60 cells; Conc. 0.33 mM): 129.3 % of negative control
- HL-60 Cell Responses to Selected Compounds from PM1 and PM2 (HL-60 cells; Conc. 1.00 mM): 141.4 % of negative control
- HL-60 Cell Responses to Selected Compounds from PM1 and PM2 (HL-60 cells; Conc. 3.3 mM): 142.2 % of negative control
- HL-60 Cell Responses to Selected Compounds from PM1 and PM2 (HL-60 cells; Conc. 10 mM): 127.1 % of negative control
- HL-60 Cell Responses to Selected Compounds from PM1 and PM2 (HL-60 cells; Conc. 15 mM): 122.2 % of negative control
- HL-60 Cell Responses to Selected Compounds from PM1 and PM2 (HL-60 cells; Conc. 20 mM): 93.9 % of negative control

From patent US9274101B2 (BIOLOG, Inc., priority 2001, dated 2016)
